Source: patent publication US12673074B2, “Mycobacterium for use in cancer therapy” (TONRON INTERNATIONAL LIMITED, priority 2020, dated 2026)

Key:
[1] = system: advanced pancreatic cancer; test: Randomised, open-label, phase II study of gemcitabine with and without IMM-101 (IMAGE 1); type: in vivo, human
Text: This study is described in U.S. Pat. No. 8,617,520 assigned to the applicant, and the results were published by Dalgeish et al, in the paper entitled “Randomised, open-label, phase II study of gemcitabine with and without IMM-101 for advanced pancreatic cancer”. [Br. J. Cancer. 2016 Sep. 27; 115(7): 789-796] and also as “Long term survival in IMAGE 1 (Immune Modulation And Gemcitabine Evaluation 1), a randomized, open-label phase II trial comparing gemcitabine with and without IMM-101 in advanced pancreatic cancer”; Angus George Dalgleish and The IMAGE 1 Trial Investigators; Journal of Clinical Oncology 2015 33:15_suppl, 3051-3051.
In summary, this study compared, in patients with advanced pancreatic cancer, the effects of gemcitabine (GEM) in combination with IMM-101 (a suspension of heat-killed whole cell M. obuense in borate-buffered saline) to gemcitabine alone on: Safety and tolerability, including QoL; clinical signs and symptoms of disease; Overall survival (OS), progression-free survival (PFS), and overall response rate (ORR; Selected markers of tumour burden and immunological status
Disease outcome—patients, who provided informed consent, participated in a screening period of up to 28 days to establish eligibility. […]

[2] = system: advanced pancreatic cancer; settings: phase II trial, metastatic pancreatic cancer patients; gemcitabine therapy with or without addition of IMM-101 (background); cited from earlier work

Question: For Nc1ccn([C@@H]2O[C@H](CO)[C@@H](O)C2(F)F)c(=O)n1 [GEM, gemcitabine], which “patients with BOR of PD” value ([1]; PS2 patients) is on record?
Answer: The value was 2 patients.

Question: What about the OS ([1]; pre-defined metastatic subgroup (84%)) of the same compound?
Answer: Its OS is 4.4 months.

Question: And the overall survival [2]?
Answer: Its overall survival is 4.4 months.
